Laboratory results from patent US20260053834A1, “COVALENT MODIFIERS OF AKT1 AND USES THEREOF” (Terremoto Biosciences, Inc., priority 2023, published 2026).

How the values were obtained:
[1] = tested on: LAPC4 prostate cancer cells, which express the AKT1 E17K allele; assay: Antiproliferative effects in LAPC4 cells (CellTiter Glo, 72 h); type: cell-based; details: Homo sapiens, LAPC4, 72 h, read-out: LAPC4 proliferation IC50: GeoMean IC50
How it was run: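 Cells grown in IMDM with 12% FBS, seeded at 1,000 cells/well and treated with compound dilutions in DMSO for 72 h. Intracellular ATP read by luminescence. IC50 from a log(inhibitor) vs. response Hill fit.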

[2] = target: T1, AKT1 E17K (Homo sapiens, UniProt P31749, E17K); assay: Live cell target engagement by NanoBRET competitive probe displacement, AKT1 E17K; type: binding; details: transfected HEK293 cells, 2 h at 37° C., read-out: AKT1 E17K IC50: GeoMean IC50
T1 construct: expressed in transfected cells; host or cells: HEK293

[3] = target: T2, AKT1 WT (Homo sapiens, UniProt P31749); assay: Live cell target engagement by NanoBRET competitive probe displacement, AKT1 WT; type: binding; details: transfected HEK293 cells, 2 h at 37° C., read-out: AKT1 WT IC50: GeoMean IC50
T2 construct: expressed in transfected cells; host or cells: HEK293

[4] = target: T3, AKT2 (Homo sapiens, UniProt P31751); assay: Live cell target engagement by NanoBRET competitive probe displacement, AKT2; type: binding; details: transfected HEK293 cells, 2 h at 37° C., read-out: AKT2 IC50: GeoMean IC50
T3 construct: expressed in transfected cells; host or cells: HEK293
T3 sequence (P31751 whole entry): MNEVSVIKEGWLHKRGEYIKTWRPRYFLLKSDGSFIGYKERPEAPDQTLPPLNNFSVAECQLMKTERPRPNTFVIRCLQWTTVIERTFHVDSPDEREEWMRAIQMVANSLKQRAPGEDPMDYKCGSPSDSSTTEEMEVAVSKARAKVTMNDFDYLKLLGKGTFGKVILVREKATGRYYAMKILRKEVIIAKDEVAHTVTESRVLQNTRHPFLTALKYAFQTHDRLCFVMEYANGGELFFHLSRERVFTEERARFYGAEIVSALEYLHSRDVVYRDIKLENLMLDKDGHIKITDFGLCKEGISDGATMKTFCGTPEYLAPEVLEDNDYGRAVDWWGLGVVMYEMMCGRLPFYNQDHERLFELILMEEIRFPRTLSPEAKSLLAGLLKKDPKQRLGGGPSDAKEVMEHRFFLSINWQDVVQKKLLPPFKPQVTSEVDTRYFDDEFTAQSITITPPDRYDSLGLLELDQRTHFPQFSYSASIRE

T1 sequence (P31749 whole entry E17K): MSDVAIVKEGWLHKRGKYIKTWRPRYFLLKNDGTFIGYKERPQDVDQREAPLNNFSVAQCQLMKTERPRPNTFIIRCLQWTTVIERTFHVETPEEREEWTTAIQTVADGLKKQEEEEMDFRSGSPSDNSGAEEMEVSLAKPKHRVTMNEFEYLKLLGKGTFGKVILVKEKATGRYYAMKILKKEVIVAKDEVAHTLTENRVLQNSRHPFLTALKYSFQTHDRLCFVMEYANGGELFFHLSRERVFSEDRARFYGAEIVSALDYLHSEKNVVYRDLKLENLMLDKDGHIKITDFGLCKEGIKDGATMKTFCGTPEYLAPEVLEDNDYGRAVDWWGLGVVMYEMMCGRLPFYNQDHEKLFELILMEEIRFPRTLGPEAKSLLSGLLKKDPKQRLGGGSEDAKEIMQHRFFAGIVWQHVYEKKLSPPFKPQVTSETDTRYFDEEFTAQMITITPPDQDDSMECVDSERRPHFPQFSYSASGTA
T2 sequence (P31749 whole entry): as the sequence (P31749 whole entry E17K) above, with K17E counted along it

Row | IC50 [1] [nM] | IC50 [2] [nM] | IC50 [3] [nM] | IC50 [4] [nM] | Compound
1 | 10 to 100 | < 10 | 10 to 100 | 100 to 2000 | Cc1cc(-c2ncco2)nc2c1nc(-c1cccnc1N)n2-c1ccc2c(c1)CC[C@@H]2NC(=O)c1ccc(O)c(C=O)c1 [Example 211, N-[(1S)-5-[2-(2-aminopyridin-3-yl)-7-methyl-5-(1,3-oxazol-2-yl)imidazo[4,5-b]pyridin-3-yl]-2,3-dihydro-1H-inden-1-yl]-3-formyl-4-hydroxybenzamide]
2 | 100 to 2000 | 10 to 100 | 100 to 2000 | ≥ 2000 | Nc1ncccc1-c1nc2ccc(Br)nc2n1-c1ccc2c(c1)CC[C@@H]2NC(=O)c1ccc(O)c(C=O)c1 [Example 37, (S)—N-(5-(2-(2-aminopyridin-3-yl)-5-bromo-3H-imidazo[4,5-b]pyridin-3-yl)-2,3-dihydro-1H-inden-1-yl)-3-formyl-4-hydroxybenzamide]
3 | 100 to 2000 | 10 to 100 | 100 to 2000 | ≥ 2000 | N#Cc1ccn(-c2ccc3nc(-c4cccnc4N)n(-c4ccc5c(c4)CC[C@@H]5NC(=O)c4ccc(O)c(C=O)c4)c3n2)n1 [Example 108, N-[(1S)-5-[2-(2-aminopyridin-3-yl)-5-(3-cyanopyrazol-1-yl)imidazo[4,5-b]pyridin-3-yl]-2,3-dihydro-1H-inden-1-yl]-3-formyl-4-hydroxybenzamide]
4 | 10 to 100 | 10 to 100 | 10 to 100 | 100 to 2000 | Cc1ccn(-c2ccc3nc(-c4cccnc4N)n(-c4ccc5c(c4)CC[C@@H]5NC(=O)c4ccc(O)c(C=O)c4)c3n2)n1 [Example 95, N-[(1S)-5-[2-(2-aminopyridin-3-yl)-5-(3-methylpyrazol-1-yl)imidazo[4,5-b]pyridin-3-yl]-2,3-dihydro-1H-inden-1-yl]-3-formyl-4-hydroxybenzamide]
5 | 100 to 2000 | 10 to 100 | 10 to 100 | 100 to 2000 | Nc1ncccc1-c1nc2cc(F)c(-n3cccn3)nc2n1-c1ccc2c(c1)CC[C@@H]2NC(=O)c1ccc(O)c(C=O)c1 [Example 248, (S)—N-(5-(2-(2-aminopyridin-3-yl)-6-fluoro-5-(1H-pyrazol-1-yl)-3H-imidazo[4,5-b]pyridin-3-yl)-2,3-dihydro-1H-inden-1-yl)-3-formyl-4-hydroxybenzamide]
6 | 100 to 2000 | 10 to 100 | 10 to 100 | 100 to 2000 | Nc1ncccc1-c1nc2c(Cl)cc(-n3cccn3)nc2n1-c1ccc2c(c1)CC[C@@H]2NC(=O)c1ccc(O)c(C=O)c1 [Example 196, (S)—N-(5-(2-(2-aminopyridin-3-yl)-7-chloro-5-(1H-pyrazol-1-yl)-3H-imidazo[4,5-b]pyridin-3-yl)-2,3-dihydro-1H-inden-1-yl)-3-formyl-4-hydroxybenzamide]
7 | 100 to 2000 | 10 to 100 | 10 to 100 | 100 to 2000 | Nc1ncccc1-c1nc2ccc(-c3ccccc3)nc2n1-c1ccc2c(c1)CC[C@@H]2NC(=O)c1ccc(C=O)c(O)c1F [Example 31, N-[(1S)-5-[2-(2-aminopyridin-3-yl)-5-phenylimidazo[4,5-b]pyridin-3-yl]-2,3-dihydro-1H-inden-1-yl]-2-fluoro-4-formyl-3-hydroxybenzamide]
8 | 10 to 100 | 10 to 100 | 10 to 100 | 100 to 2000 | COc1ccn(-c2ccc3nc(-c4cccnc4N)n(-c4ccc5c(c4)CC[C@@H]5NC(=O)c4ccc(O)c(C=O)c4)c3n2)n1 [Example 106, N-[(1S)-5-[2-(2-aminopyridin-3-yl)-5-(3-methoxypyrazol-1-yl)imidazo[4,5-b]pyridin-3-yl]-2,3-dihydro-1H-inden-1-yl]-3-formyl-4-hydroxybenzamide]
9 | ≥ 2000 | ≥ 2000 | 100 to 2000 | ≥ 2000 | Nc1ncccc1-c1nc2ccc(-c3ccccc3)nc2n1-c1ccc2c(c1)CC[C@@H]2NC(=O)c1cc(C=O)c(O)cn1 [Example 40, N-[(1S)-5-[2-(2-aminopyridin-3-yl)-5-phenylimidazo[4,5-b]pyridin-3-yl]-2,3-dihydro-1H-inden-1-yl]-4-formyl-5-hydroxypyridine-2-carboxamide]
10 | 100 to 2000 | 100 to 2000 | 10 to 100 | 100 to 2000 | Cn1ccnc1Nc1ccc(C(=O)N[C@H]2CCc3cc(-n4c(-c5cccnc5N)nc5ccc(-n6cccn6)nc54)ccc32)cc1C=O [Example 141, (S)—N-(5-(2-(2-aminopyridin-3-yl)-5-(1H-pyrazol-1-yl)-3H-imidazo[4,5-b]pyridin-3-yl)-2,3-dihydro-1H-inden-1-yl)-3-formyl-4-((1-methyl-1H-imidazol-2-yl)amino)benzamide]
11 | 100 to 2000 | 10 to 100 | 10 to 100 | 100 to 2000 | COCc1cc(-n2cccn2)nc2c1nc(-c1cccnc1N)n2-c1ccc2c(c1)CC[C@@H]2NC(=O)c1ccc(O)c(C=O)c1 [Example 210, N-[(1S)-5-[2-(2-aminopyridin-3-yl)-7-(methoxymethyl)-5-(pyrazol-1-yl)imidazo[4,5-b]pyridin-3-yl]-2,3-dihydro-1H-inden-1-yl]-3-formyl-4-hydroxybenzamide]
12 | 10 to 100 | < 10 | 10 to 100 | 100 to 2000 | Nc1ncccc1-c1nc2ccc(-c3ncco3)nc2n1-c1ccc2c(c1)CC[C@@H]2NC(=O)c1cc(C=O)c(O)cc1F [Example 151, N-[(1S)-5-[2-(2-aminopyridin-3-yl)-5-(1,3-oxazol-2-yl)imidazo[4,5-b]pyridin-3-yl]-2,3-dihydro-1H-inden-1-yl]-2-fluoro-5-formyl-4-hydroxybenzamide]
13 | 100 to 2000 | 10 to 100 | 10 to 100 | 100 to 2000 | COc1cc(C(=O)N[C@H]2CCc3cc(-n4c(-c5cccnc5N)nc5ccc(-n6cccn6)nc54)ccc32)cc(C=O)c1O [Example 182, N-[(1S)-5-[2-(2-aminopyridin-3-yl)-5-(pyrazol-1-yl)imidazo[4,5-b]pyridin-3-yl]-2,3-dihydro-1H-inden-1-yl]-3-formyl-4-hydroxy-5-methoxybenzamide]
14 | 10 to 100 | < 10 | 10 to 100 | 100 to 2000 | Nc1ncccc1-c1nc2ccc(-n3cccn3)nc2n1-c1ccc2c(c1)CC[C@@H]2NC(=O)c1cc(C=O)c2[nH]ncc2c1 [Example 66, N-[(1S)-5-[2-(2-aminopyridin-3-yl)-5-(pyrazol-1-yl)imidazo[4,5-b]pyridin-3-yl]-2,3-dihydro-1H-inden-1-yl]-7-formyl-1H-indazole-5-carboxamide]
15 | 100 to 2000 | 10 to 100 | 10 to 100 | 100 to 2000 | Cn1cc(-c2ccc3nc(-c4cccnc4N)n(-c4ccc5c(c4)CC[C@@H]5NC(=O)c4ccc(O)c(C=O)c4)c3n2)nn1 [Example 72, (S)—N-(5-(2-(2-aminopyridin-3-yl)-5-(1-methyl-1H-1,2,3-triazol-4-yl)-3H-imidazo[4,5-b]pyridin-3-yl)-2,3-dihydro-1H-inden-1-yl)-3-formyl-4-hydroxybenzamide]
16 | 10 to 100 | < 10 | 10 to 100 | 100 to 2000 | CC(=O)Nc1ccc(C(=O)N[C@H]2CCc3cc(-n4c(-c5cccnc5N)nc5ccc(-n6cccn6)nc54)ccc32)cc1C=O [Example 56, N-[(1S)-5-[2-(2-aminopyridin-3-yl)-5-(pyrazol-1-yl)imidazo[4,5-b]pyridin-3-yl]-2,3-dihydro-1H-inden-1-yl]-4-acetamido-3-formylbenzamide]
17 | ≥ 2000 | 10 to 100 | 10 to 100 | ≥ 2000 | Nc1ncc(F)cc1-c1nc2ccc(-n3cccn3)nc2n1-c1ccc2c(c1)CC[C@@H]2NC(=O)c1ccc(O)c(C=O)c1 [Example 163, (S)—N-(5-(2-(2-amino-5-fluoropyridin-3-yl)-5-(1H-pyrazol-1-yl)-3H-imidazo[4,5-b]pyridin-3-yl)-2,3-dihydro-1H-inden-1-yl)-3-formyl-4-hydroxybenzamide]
18 | 100 to 2000 | 10 to 100 | 10 to 100 | 100 to 2000 | [2H]C(=O)c1cc(C(=O)N[C@H]2CCc3cc(-n4c(-c5cccnc5N)nc5c(C)cc(-n6cccn6)nc54)ccc32)ccc1O [Example 183, (S)—N-(5-(2-(2-aminopyridin-3-yl)-7-methyl-5-(1H-pyrazol-1-yl)-3H-imidazo[4,5-b]pyridin-3-yl)-2,3-dihydro-1H-inden-1-yl)-3-(formyl-d)-4-hydroxybenzamide]
19 | 100 to 2000 | 10 to 100 | 100 to 2000 | 100 to 2000 | Nc1ncccc1-c1nc2ccc(N3CCOCC3)nc2n1-c1ccc2c(c1)CC[C@@H]2NC(=O)c1ccc(O)c(C=O)c1 [Example 42, N-[(1S)-5-[2-(2-aminopyridin-3-yl)-5-(morpholin-4-yl)imidazo[4,5-b]pyridin-3-yl]-2,3-dihydro-1H-inden-1-yl]-3-formyl-4-hydroxybenzamide]
20 | 10 to 100 | < 10 | 10 to 100 | 10 to 100 | Nc1ncccc1-c1nc2ccc(-n3cccn3)nc2n1-c1ccc2c(c1)CC[C@@H]2NC(=O)c1cc(C=O)c(O)c(Cl)c1F [Example 123, (S)—N-(5-(2-(2-aminopyridin-3-yl)-5-(1H-pyrazol-1-yl)-3H-imidazo[4,5-b]pyridin-3-yl)-2,3-dihydro-1H-inden-1-yl)-3-chloro-2-fluoro-5-formyl-4-hydroxybenzamide]
